Measurements: patent US20230257372A1 (CHONG KUN DANG PHARMACEUTICAL CORP., priority 2020, published 2023)
Read-outs that look alike come from different tables or passages of the source.

What was measured:
human recombinant HDAC6 = target: T1, human recombinant HDAC6 (Homo sapiens, UniProt Q9UBN7); test: HDAC6 enzyme activity inhibition (HDAC Fluorimetric Drug Discovery Kit); format: biochemical
T1 construct: purchased Calbiochem Inc. 382180
T1 sequence (Q9UBN7 1-1215): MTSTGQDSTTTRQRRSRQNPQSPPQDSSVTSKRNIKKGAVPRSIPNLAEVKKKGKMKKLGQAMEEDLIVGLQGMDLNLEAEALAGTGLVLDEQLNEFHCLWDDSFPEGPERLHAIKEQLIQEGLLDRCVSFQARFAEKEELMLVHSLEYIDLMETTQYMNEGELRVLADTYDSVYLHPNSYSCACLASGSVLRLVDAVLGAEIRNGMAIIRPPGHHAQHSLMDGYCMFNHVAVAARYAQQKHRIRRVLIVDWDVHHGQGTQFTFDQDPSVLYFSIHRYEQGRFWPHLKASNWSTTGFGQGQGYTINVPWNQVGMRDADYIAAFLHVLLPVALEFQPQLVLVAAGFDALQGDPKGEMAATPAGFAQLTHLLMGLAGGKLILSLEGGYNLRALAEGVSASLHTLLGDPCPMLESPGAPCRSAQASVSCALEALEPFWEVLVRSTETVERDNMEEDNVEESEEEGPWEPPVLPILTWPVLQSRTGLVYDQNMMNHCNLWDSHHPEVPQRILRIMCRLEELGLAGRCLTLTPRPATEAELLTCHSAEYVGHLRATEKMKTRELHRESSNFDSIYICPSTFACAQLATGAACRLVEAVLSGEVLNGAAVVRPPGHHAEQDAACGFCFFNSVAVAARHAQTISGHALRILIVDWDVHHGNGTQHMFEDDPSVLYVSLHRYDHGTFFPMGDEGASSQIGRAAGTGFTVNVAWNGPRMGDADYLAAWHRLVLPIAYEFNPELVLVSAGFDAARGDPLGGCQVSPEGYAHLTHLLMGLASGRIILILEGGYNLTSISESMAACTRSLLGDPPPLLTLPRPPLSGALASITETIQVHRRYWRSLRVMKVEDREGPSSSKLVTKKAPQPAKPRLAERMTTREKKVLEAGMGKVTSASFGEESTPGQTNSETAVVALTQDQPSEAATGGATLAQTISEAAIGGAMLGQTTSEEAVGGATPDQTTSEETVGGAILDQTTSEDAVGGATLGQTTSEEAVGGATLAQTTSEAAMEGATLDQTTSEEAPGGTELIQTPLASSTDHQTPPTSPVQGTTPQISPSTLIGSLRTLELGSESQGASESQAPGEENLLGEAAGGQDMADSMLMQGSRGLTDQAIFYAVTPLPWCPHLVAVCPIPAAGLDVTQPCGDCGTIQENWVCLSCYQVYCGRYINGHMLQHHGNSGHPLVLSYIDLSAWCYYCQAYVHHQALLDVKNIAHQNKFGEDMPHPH
Outline: (§1)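 Five-fold compound dilutions incubated with […] recombinant enzyme and 10 μM fluorogenic Fluor de Lys substrate, 60 min at 30° C. Fluor de Lys Developer II then added for 30 min to generate the fluorescent read-out.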

human recombinant HDAC1 = target: T2, human recombinant HDAC1 (Homo sapiens, UniProt Q13547); test: HDAC1 enzyme activity inhibition (HDAC Fluorimetric Drug Discovery Kit); format: biochemical; settings: read-out: HDAC1
T2 construct: purchased Enzo Life Science, Inc. BML-SE456
Outline: as §1

[1] = system: hippocampal neurons from a Sprague-Dawley (SD) rat fetus; test: Effect of HDAC6-specific inhibitor on axonal transport of mitochondria in amyloid-beta treated neurons; format: cell-based; settings: transport velocity of mitochondria in neuronal axon after normalization; vehicle = 100%, amyloid beta treatment group = 0%; compound treatment for three hours
Outline: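 Rat E17-18 hippocampal neurons exposed to amyloid-beta fragments […]; after 24 h (day 8 in vitro) compound added for 3 h, mitochondria stained with MitoTracker Red CMXRos. Confocal imaging every 1 s for 1 min gave per-mitochondrion velocity, normalized vehicle = 100%, amyloid-beta = 0%.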

[2] = human recombinant HDAC6, IC50 calculated with GraphPad Prism
[3] = human recombinant HDAC1, IC50 calculated with GraphPad Prism
[4] = human recombinant HDAC6, same protocol as HDAC1
[5] = human recombinant HDAC1, Fluor de Lys substrate, 30° C. 60 minutes

T2 sequence (Q13547 whole entry): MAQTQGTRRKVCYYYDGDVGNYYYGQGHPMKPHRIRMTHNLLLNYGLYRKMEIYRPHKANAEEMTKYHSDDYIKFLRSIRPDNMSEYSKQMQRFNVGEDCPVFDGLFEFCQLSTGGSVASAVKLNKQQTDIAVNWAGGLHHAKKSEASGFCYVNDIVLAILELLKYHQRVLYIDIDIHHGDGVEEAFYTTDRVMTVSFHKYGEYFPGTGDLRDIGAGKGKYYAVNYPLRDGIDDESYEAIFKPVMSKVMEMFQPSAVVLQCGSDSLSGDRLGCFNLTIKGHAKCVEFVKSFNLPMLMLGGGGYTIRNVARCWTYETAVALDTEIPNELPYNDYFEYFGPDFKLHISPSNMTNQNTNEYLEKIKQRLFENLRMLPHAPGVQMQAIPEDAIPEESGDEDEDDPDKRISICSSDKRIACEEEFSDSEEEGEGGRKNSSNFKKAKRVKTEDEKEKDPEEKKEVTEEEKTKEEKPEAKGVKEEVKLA

Row | HDAC6 selectivity (fold) (human recombinant HDAC6; HDAC1 IC50 / HDAC6 IC50) | IC50 (human recombinant HDAC6; [2]) | IC50 (human recombinant HDAC1; [3]) | HDAC6 selectivity (fold) (human recombinant HDAC6; HDAC6 over HDAC1) | IC50 (human recombinant HDAC6; [4]) | IC50 (human recombinant HDAC1; [5]) | SMILES | Velocity distribution (%) [1]
1 | 2232 fold | 0.0224 µM | > 50 µM | – | – | – | FC(F)c1nnc(-c2ccc(Cn3nnc(-c4cccs4)n3)nc2)o1 [Compound 4232, 2-(difluoromethyl)-5-(6-((5-(thiophen-2-yl)-2H-tetrazol-2-yl)methyl)pyridin-3-yl)-1,3,4-oxadiazole] | ** (**, 50%˜100%)
2 | 2427 fold | 0.0206 µM | > 50 µM | – | – | – | CC(C)N1CCC(Nc2cccc(-c3cn(Cc4ccc(-c5nnc(C(F)F)o5)cc4F)nn3)c2F)CC1 [Compound 4432, N-(3-(1-(4-(5-(difluoromethyl)-1,3,4-oxadiazol-2-yl)-2-fluorobenzyl)-1H-1,2,3-triazol-4-yl)-2-fluorophenyl)-1-isopropylpiperidin-4-amine] | *** (***, >100%)
3 | 1754 fold | 0.0285 µM | > 50 µM | – | – | – | FC(F)c1nnc(-c2ccc(Cn3cc(-c4cccc(CN5CCOCC5)c4)nn3)nc2)o1 [Compound 3916, 4-(3-(1-((5-(5-(difluoromethyl)-1,3,4-oxadiazol-2-yl)pyridin-2-yl)methyl)-1H-1,2,3-triazol-4-yl)benzyl)morpholine] | *** (***, >100%)
4 | 1984 fold | 0.0252 µM | > 50 µM | – | – | – | COC(=O)Nc1cccc(-c2cn(Cc3ccc(-c4nnc(C(F)F)o4)cc3F)nn2)c1 [Compound 3776, Methyl (3-(1-(4-(5-(difluoromethyl)-1,3,4-oxadiazol-2-yl)-2-fluorobenzyl)-1H-1,2,3-triazol-4-yl)phenyl)carbamate] | *** (***, >100%)
5 | – | – | – | 2100 fold | 0.0238 µM | > 50 µM | Fc1cc(-c2nnc(C(F)F)o2)ccc1Cn1cc(-c2ccc(CN3CCC3)cn2)nn1 [Compound 17532, 2-(4-((4-(5-(azetidin-1-yl-methyl)pyridin-2-yl)-1H-1,2,3-triazol-1-yl)methyl)-3-fluorophenyl)5-(difluoromethyl)-1,3,4-oxadiazole] | *** (***, >100%)
6 | 1470 fold | 0.034 µM | > 50 µM | – | – | – | FC(F)c1nnc(-c2ccc(Cn3cc(-c4ccccn4)nn3)nc2)o1 [Compound 3881, 2-(difluoromethyl)-5-(6-((4-(pyridin-2-yl)-1H-1,2,3-triazol-1-yl)methyl)pyridin-3-yl)-1,3,4-oxadiazole] | *** (***, >100%)
7 | 2941 fold | 0.0167 µM | > 50 µM | – | – | – | Fc1cc(-c2nnc(C(F)F)o2)ccc1Cn1cc(-c2ccc3[nH]ccc3c2)nn1 [Compound 4135, 2-(4-((4-(1H-indol-5-yl)-1H-1,2,3-triazol-1-yl)methyl)-3-fluorophenyl)-5-(difluoromethyl)-1,3,4-oxadiazole] | ** (**, 50%˜100%)
8 | 5952 fold | 0.0084 µM | > 50 µM | – | – | – | FC(F)c1nnc(-c2ccc(Cn3cc(-c4cnc5[nH]ccc5c4)nn3)nc2)o1 [Compound 3841, 2-(6-((4-(1H-pyrrolo[2,3-b]pyridin-5-yl)-1H-1,2,3-triazol-1-yl)methyl)pyridin-3-yl)-5-(difluoromethyl)-1,3,4-oxadiazole] | *** (***, >100%)
9 | 7462 fold | 0.0067 µM | > 50 µM | – | – | – | FC(F)c1nnc(-c2ccc(Cn3cc(-c4ccc5c(CN6CCOCC6)c[nH]c5c4)nn3)nc2)o1 [Compound 3944, 4-((6-(1-((5-(5-(difluoromethyl)-1,3,4-oxadiazol-2-yl)pyridin-2-yl)methyl)-1H-1,2,3-triazol-4-yl)-1H-indol-3-yl)methyl)morpholine] | * (*, 0%˜50%)
10 | 4629 fold | 0.0108 µM | > 50 µM | – | – | – | CN(C)Cc1c[nH]c2cc(-c3cn(Cc4ccc(-c5nnc(C(F)F)o5)cn4)nn3)ccc12 [Compound 3962, 1-(6-(1-((5-(5-(difluoromethyl)-1,3,4-oxadiazol-2-yl)pyridin-2-yl)methyl)-1H-1,2,3-triazol-4-yl)-1H-indol-3-yl)-N,N-dimethylmethanamine] | *** (***, >100%)
11 | 963 fold | 0.0519 µM | > 50 µM | – | – | – | CC(C)N1CCc2ccc(-c3cn(Cc4ccc(-c5nnc(C(F)F)o5)cn4)nn3)cc2C1 [Compound 4210, 2-(difluoromethyl)-5-(6-((4-(2-isopropyl-1,2,3,4-tetrahydroisoquinolin-7-yl)-1H-1,2,3-triazol-1-yl)methyl)pyridin-3-yl)-1,3,4-oxadiazole] | * (*, 0%˜50%)
12 | 1298 fold | 0.0385 µM | > 50 µM | – | – | – | CC(C)N1CCN(c2cccc(-c3cn(Cc4ccc(-c5nnc(C(F)F)o5)cn4)nn3)c2)CC1 [Compound 4070, 2-(difluoromethyl)-5-(6-((4-(3-(4-isopropylpiperazin-1-yl)phenyl)-1H-1,2,3-triazol-1-yl)methyl)pyridin-3-yl)-1,3,4-oxadiazole] | ** (**, 50%˜100%)
13 | 1118 fold | 0.0447 µM | > 50 µM | – | – | – | O=C(c1cccc(-c2cn(Cc3ccc(-c4nnc(C(F)F)o4)cn3)nn2)c1)N1CCC1 [Compound 3886, Azetidin-1-yl(3-(1-((5-(5-(difluoromethyl)-1,3,4-oxadiazol-2-yl)pyridin-2-yl)methyl)-1H-1,2,3-triazol-4-yl)phenyl)methanone] | * (*, 0%˜50%)
14 | 1773 fold | 0.0282 µM | > 50 µM | – | – | – | CCC(=O)N1CCN(c2cccc(-c3cn(Cc4ccc(-c5nnc(C(F)F)o5)cn4)nn3)c2)CC1 [Compound 3991] | ** (**, 50%˜100%)
15 | 2415 fold | 0.0207 µM | > 50 µM | – | – | – | FC(F)c1nnc(-c2ccc(Cn3cc(-c4cccs4)nn3)nc2)o1 [Compound 3902, 2-(difluoromethyl)-5-(6-((4-(thiophen-2-yl)-1H-1,2,3-triazol-1-yl)methyl)pyridin-3-yl)-1,3,4-oxadiazole] | *** (***, >100%)
16 | – | – | – | 1319 fold | 0.0379 µM | > 50 µM | CN(C)Cc1ccc(-c2cn(Cc3ccc(-c4nnc(C(F)F)o4)cc3F)nn2)nc1 [Compound 17534, 1-(6-(1-(4-(5-(difluoromethyl)-1,3,4-oxadiazol-2-yl)-2-fluorobenzyl)-1H-1,2,3-triazol-4-yl)pyridin-3-yl)-N,N-dimethylmethanamine] | *** (***, >100%)
17 | 863 fold | 0.0579 µM | > 50 µM | – | – | – | Fc1cc(-c2nnc(C(F)F)o2)ccc1Cn1cc(-c2ccccc2)nn1 [Compound 3658, 2-(difluoromethyl)-5-(3-fluoro-4-((4-phenyl-1H-1,2,3-triazol-1-yl)methyl)phenyl)-1,3,4-oxadiazole] | * (*, 0%˜50%)

Row | SMILES | HDAC6 selectivity (fold) (human recombinant HDAC6; HDAC1 IC50 / HDAC6 IC50) | IC50 (human recombinant HDAC6; [2]) | IC50 (human recombinant HDAC1; [3]) | HDAC6 selectivity (fold) (human recombinant HDAC6; HDAC6 over HDAC1) | IC50 (human recombinant HDAC6; [4]) | IC50 (human recombinant HDAC1; [5]) | Velocity distribution (%) [1]
18 | CN1CCC(Nc2cccc(-c3cn(Cc4ccc(-c5nnc(C(F)F)o5)cc4F)nn3)c2F)CC1 [Compound 4431, N-(3-(1-(4-(5-(difluoromethyl)-1,3,4-oxadiazol-2-yl)-2-fluorobenzyl)-1H-1,2,3-triazol-4-yl)-2-fluorophenyl)-1-methylpiperidin-4-amine] | 2631 fold | 0.019 µM | > 50 µM | – | – | – | *** (***, >100%)
